Test results from ChEMBL document CHEMBL4049442, “Design, Synthesis, and Biological Evaluation of Dimorpholine Substituted Thienopyrimidines as Potential Class I PI3K/mTOR Dual Inhibitors” (J Med Chem, 2017).
The source made the active and inactive calls. The rule behind the calls is not given here.

Tests used:
[1] = molecular target: Serine/threonine-protein kinase mTOR (Homo sapiens, UniProt P42345); experiment: Inhibition of recombinant human N-terminal FLAG-tagged mTOR (1362 to end residues) expressed in baculovirus infected Sf21 insect cells assessed as reduction in ULight-4E-BP1 phosphorylation after 30 mins by lance ultra assay
[2] = molecular target: PI3-kinase p110-alpha/p85-alpha (Homo sapiens, UniProt P42336); experiment: Inhibition of full length recombinant human N-terminal His-tagged PI3K p110alpha/p85alpha expressed in baculovirus using PIP2 as substrate after 1 hr by kinase-glo luminescence assay
[3] = tested on: U-87 MG; experiment: cells; details: Homo sapiens, 72 h
[4] = tested on: SK-OV-3; experiment: cells; details: Homo sapiens, SK-OV-3, 72 h
[5] = tested on: LNCaP; experiment: cells; details: Homo sapiens, 72 h
[6] = tested on: PC-3; experiment: cells; details: Homo sapiens, PC-3, 72 h
[7] = tested on: U-87 MG; experiment: Antitumor activity against human U87MG cells xenografted in BALB/c nude mouse assessed as tumor growth inhibition at 20 mg/kg/day, po for 18 days measured every 3 days during compound dosing relative to control; type: functional; details: U-87MG ATCC
[8] = tested on: SK-OV-3; experiment: Antitumor activity against human SKOV3 cells xenografted in BALB/c nude mouse assessed as tumor growth inhibition at 30 mg/kg/day, po for 24 days measured every 3 days during compound dosing relative to control; type: functional
[9] = molecular target: Phosphatidylinositol 4,5-bisphosphate 3-kinase catalytic subunit gamma isoform (Homo sapiens, UniProt P48736); experiment: Inhibition of recombinant human His-tagged PI3K p110gamma expressed in baculovirus using PIP2 as substrate after 1 hr by kinase-glo luminescence assay
[10] = molecular target: Phosphatidylinositol 4,5-bisphosphate 3-kinase catalytic subunit beta isoform (Homo sapiens, UniProt P42338); experiment: Inhibition of PI3Kbeta (unknown origin) using PIP2 as substrate after 1 hr by ADP-Glo luminescence assay
[11] = molecular target: PI3-kinase p110-delta/p85-alpha (Homo sapiens, UniProt O00329); experiment: Inhibition of recombinant full length human N-terminal His6-tagged PI3K p110delta/p85alpha expressed in baculovirus infected Sf21 cells using PIP2 as substrate after 2 hrs by kinase-glo luminescence assay
PI3-kinase p110-delta/p85-alpha, sequence (P27986 whole entry): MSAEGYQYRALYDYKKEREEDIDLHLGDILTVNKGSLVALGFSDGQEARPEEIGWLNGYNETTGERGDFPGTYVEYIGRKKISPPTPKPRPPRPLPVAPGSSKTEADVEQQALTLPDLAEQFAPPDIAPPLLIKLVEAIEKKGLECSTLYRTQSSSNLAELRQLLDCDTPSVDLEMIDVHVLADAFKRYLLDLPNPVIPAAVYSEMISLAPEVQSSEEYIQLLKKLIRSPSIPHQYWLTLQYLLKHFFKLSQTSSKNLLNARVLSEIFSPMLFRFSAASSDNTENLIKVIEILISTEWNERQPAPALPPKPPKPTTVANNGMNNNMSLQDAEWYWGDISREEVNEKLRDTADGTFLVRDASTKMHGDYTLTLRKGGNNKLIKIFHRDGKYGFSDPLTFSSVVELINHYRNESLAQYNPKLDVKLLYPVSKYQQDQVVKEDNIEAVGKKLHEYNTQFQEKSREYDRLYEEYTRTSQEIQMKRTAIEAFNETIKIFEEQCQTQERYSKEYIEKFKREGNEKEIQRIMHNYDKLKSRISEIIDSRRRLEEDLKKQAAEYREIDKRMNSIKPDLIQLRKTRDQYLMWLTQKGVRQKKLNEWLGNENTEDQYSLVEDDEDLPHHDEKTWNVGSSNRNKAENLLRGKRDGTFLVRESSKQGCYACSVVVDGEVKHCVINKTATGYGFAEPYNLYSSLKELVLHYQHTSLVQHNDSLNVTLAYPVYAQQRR
PI3-kinase p110-delta/p85-alpha, sequence (O00329 whole entry): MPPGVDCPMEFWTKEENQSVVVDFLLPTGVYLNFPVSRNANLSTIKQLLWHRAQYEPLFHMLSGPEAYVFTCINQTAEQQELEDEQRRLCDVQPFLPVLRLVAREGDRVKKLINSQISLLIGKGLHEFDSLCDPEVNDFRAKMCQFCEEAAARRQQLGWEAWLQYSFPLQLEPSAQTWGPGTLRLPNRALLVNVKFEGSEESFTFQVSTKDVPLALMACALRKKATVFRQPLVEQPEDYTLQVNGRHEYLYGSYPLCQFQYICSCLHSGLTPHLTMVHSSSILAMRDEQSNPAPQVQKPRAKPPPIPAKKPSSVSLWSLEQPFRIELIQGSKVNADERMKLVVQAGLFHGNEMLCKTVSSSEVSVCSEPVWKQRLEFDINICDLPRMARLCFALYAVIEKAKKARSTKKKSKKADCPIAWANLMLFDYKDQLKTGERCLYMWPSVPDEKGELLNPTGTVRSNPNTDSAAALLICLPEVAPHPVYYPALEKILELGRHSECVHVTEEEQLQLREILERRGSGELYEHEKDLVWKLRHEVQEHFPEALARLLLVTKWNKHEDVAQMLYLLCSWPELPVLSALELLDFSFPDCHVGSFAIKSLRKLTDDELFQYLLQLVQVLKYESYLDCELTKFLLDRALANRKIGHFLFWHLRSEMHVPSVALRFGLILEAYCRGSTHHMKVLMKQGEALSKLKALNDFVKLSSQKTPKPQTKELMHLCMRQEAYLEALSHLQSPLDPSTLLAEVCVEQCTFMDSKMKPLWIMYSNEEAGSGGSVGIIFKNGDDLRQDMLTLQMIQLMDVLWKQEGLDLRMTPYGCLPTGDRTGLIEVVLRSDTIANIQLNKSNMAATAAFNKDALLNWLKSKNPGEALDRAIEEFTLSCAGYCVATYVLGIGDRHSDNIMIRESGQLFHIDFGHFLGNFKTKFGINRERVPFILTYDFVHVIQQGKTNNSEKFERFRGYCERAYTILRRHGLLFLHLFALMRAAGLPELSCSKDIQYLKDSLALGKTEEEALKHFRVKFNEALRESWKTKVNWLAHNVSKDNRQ

PI3-kinase p110-alpha/p85-alpha, sequence (P27986 whole entry): as the sequence (P27986 whole entry) above
PI3-kinase p110-alpha/p85-alpha, sequence (P42336 whole entry): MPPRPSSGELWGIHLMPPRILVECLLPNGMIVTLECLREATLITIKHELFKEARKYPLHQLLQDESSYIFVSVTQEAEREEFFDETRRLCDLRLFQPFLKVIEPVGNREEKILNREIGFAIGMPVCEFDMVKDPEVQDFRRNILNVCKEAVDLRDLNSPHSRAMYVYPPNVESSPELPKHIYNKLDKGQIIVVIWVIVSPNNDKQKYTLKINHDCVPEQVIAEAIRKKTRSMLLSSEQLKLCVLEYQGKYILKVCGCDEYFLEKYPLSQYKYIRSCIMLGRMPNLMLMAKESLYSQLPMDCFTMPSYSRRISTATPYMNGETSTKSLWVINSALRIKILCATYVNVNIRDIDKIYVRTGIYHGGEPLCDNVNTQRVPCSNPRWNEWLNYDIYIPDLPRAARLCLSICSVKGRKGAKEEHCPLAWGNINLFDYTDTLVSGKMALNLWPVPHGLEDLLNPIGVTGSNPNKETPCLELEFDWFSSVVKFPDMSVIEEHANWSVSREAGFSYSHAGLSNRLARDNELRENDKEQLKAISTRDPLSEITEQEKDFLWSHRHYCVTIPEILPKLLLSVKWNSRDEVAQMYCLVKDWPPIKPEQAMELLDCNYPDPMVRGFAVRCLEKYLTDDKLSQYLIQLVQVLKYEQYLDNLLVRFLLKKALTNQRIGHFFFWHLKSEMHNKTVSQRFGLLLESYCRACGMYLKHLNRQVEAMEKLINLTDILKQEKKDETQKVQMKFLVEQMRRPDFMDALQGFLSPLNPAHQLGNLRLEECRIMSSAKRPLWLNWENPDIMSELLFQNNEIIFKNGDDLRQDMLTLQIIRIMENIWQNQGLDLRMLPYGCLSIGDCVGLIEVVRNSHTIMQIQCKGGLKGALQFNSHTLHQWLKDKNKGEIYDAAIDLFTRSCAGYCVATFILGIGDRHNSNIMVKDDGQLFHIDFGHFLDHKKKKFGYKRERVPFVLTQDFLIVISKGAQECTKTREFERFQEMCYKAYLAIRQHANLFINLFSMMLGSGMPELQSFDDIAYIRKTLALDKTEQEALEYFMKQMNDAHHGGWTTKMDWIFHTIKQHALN
Phosphatidylinositol 4,5-bisphosphate 3-kinase catalytic subunit gamma isoform, sequence (P48736 whole entry, canonical isoform): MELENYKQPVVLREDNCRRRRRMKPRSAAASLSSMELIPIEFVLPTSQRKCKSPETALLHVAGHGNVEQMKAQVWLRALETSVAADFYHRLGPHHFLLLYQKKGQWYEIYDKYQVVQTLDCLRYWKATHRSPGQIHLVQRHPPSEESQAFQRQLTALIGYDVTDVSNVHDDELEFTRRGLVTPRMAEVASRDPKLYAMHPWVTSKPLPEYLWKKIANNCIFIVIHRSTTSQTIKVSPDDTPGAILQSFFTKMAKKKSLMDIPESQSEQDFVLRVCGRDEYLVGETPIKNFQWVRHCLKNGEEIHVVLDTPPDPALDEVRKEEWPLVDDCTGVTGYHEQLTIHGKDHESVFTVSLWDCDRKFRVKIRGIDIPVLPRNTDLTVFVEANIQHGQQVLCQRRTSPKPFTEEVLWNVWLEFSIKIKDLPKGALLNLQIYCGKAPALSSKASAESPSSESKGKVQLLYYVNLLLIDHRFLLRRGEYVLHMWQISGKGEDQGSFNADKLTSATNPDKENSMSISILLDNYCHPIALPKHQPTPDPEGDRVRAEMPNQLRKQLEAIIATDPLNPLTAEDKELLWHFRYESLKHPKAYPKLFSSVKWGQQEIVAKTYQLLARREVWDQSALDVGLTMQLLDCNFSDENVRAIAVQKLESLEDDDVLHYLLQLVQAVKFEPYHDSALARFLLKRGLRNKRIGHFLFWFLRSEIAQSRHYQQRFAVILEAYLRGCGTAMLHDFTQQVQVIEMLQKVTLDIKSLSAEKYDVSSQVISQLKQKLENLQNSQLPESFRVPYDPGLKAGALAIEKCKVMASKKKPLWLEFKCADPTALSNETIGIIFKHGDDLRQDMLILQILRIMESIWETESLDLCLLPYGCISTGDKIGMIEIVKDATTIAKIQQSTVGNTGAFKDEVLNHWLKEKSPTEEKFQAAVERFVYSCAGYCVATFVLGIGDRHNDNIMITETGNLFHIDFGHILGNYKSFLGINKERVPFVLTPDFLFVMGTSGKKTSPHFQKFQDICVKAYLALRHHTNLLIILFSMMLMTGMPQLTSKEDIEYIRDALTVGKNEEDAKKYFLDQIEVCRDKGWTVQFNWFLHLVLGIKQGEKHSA
Phosphatidylinositol 4,5-bisphosphate 3-kinase catalytic subunit beta isoform, sequence (P42338 whole entry, canonical isoform): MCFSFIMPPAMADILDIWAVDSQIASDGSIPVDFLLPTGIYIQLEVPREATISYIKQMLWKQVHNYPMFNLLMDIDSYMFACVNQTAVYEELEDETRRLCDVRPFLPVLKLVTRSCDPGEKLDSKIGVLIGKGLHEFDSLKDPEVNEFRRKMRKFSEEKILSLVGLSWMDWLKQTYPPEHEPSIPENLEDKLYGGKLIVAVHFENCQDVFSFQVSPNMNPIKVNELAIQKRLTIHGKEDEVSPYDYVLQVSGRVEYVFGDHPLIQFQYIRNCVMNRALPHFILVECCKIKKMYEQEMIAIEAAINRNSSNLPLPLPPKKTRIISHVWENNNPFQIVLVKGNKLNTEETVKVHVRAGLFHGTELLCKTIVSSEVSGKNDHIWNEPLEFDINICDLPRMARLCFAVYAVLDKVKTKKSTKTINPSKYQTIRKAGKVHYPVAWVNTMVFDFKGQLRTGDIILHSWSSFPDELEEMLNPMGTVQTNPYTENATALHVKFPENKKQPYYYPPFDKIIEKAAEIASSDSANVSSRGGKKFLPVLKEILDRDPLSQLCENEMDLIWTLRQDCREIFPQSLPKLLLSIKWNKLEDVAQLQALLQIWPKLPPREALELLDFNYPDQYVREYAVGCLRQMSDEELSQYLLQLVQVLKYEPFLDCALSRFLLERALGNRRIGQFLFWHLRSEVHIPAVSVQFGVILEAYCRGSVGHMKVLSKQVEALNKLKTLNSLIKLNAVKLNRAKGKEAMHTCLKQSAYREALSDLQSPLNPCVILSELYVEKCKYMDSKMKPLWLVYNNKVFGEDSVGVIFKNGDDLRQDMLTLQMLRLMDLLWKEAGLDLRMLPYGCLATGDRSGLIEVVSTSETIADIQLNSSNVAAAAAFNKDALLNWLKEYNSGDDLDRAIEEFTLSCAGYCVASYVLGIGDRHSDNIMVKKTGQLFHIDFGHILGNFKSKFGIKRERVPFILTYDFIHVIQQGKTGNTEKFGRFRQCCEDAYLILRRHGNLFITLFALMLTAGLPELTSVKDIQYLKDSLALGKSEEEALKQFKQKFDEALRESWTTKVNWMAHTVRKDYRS

Structure (SMILES)	IC50 [1] [nM]	IC50 [2] [nM]	IC50 [3] [nM]	IC50 [4] [nM]	IC50 [5] [nM]	IC50 [6] [nM]	TGI [7]	TGI [8]	IC50 [9] [nM]	IC50 [10] [nM]	IC50 [11] [nM]
C[C@@H]1CN(c2nc(N3CCOCC3)c3sc(-c4cnn(C)c4)cc3n2)C[C@H](C)O1	> 2000	4950									
c1cc2nc(N3CCOCC3)nc(N3CCOCC3)c2s1	> 2000	1870									
OCc1cc2nc(N3CCSCC3)nc(N3CCOCC3)c2s1	603	249	> 25000	2180	4200	2260					
OCc1cc2nc(N3CCOCC3)nc(N3CCOCC3)c2s1	> 2000	216	17500	8240	2060	6000					
C[C@@H]1CN(c2nc(N3CCOCC3)c3sc(-c4cncnc4)cc3n2)C[C@H](C)O1	> 2000	9470									
C[C@@H]1CN(c2nc(N3CCOCC3)c3sc(-c4ccnn4C)cc3n2)C[C@H](C)O1	> 2000	1240									
C[C@@H]1CN(c2nc(N3CCOCC3)c3sc(-c4cccc5[nH]ncc45)cc3n2)C[C@H](C)O1	> 2000	> 10000									
C[C@@H]1CN(c2nc(N3CCOCC3)c3sc(-c4ccccc4)cc3n2)C[C@H](C)O1	> 2000	> 10000									
C[C@@H]1CN(c2nc(N3CCOCC3)c3sc(C(O)Cc4ccccc4)cc3n2)C[C@H](C)O1 (stereo not given in full)	> 2000	2050									
COc1ccc(-c2cc3nc(N4C[C@@H](C)O[C@@H](C)C4)nc(N4CCOCC4)c3s2)cn1	> 2000	> 10000									
C[C@@H]1CN(c2nc(N3CCOCC3)c3sc(CO)cc3n2)C[C@H](C)O1	463	216	6590	4990	1780	1050					
C[C@@H]1CN(c2nc(N3CCOCC3)c3sc(-c4ccco4)cc3n2)C[C@H](C)O1	109	2200	12800	5910	2640	> 25000					
Cc1c(-c2ccn[nH]2)sc2c(N3CCOCC3)nc(N3C[C@@H](C)O[C@@H](C)C3)nc12	73	197	8760	830	1100	1740					
C[C@@H]1COCCN1c1nc(N2CCOCC2)c2sc(CO)cc2n1	335	299	> 25000	2170	2630	1320					
C[C@@H]1CN(c2nc(N3CCOCC3)c3sc(-c4ccncc4)cc3n2)C[C@H](C)O1	> 2000	> 10000									
C[C@@H]1CN(c2nc(N3CCOCC3)c3sc(-c4ccoc4)cc3n2)C[C@H](C)O1	222	3560	> 25000	21800	6770	5920					
OCc1cc2nc(N3CCOc4ccccc43)nc(N3CCOCC3)c2s1	336	681	21200	2890	1820	2670					
C[C@@H]1CN(c2nc(N3CCOCC3)c3sc(-c4cccnc4)cc3n2)C[C@H](C)O1	612	281	> 25000	15700	3000	12800					

Structure (SMILES)	IC50 [1] [nM]	IC50 [2] [nM]	IC50 [3] [nM]	IC50 [4] [nM]	IC50 [5] [nM]	IC50 [6] [nM]	TGI [7]	TGI [8]	IC50 [9] [nM]	IC50 [10] [nM]	IC50 [11] [nM]
CS(=O)(=O)N1CCN(Cc2cc3nc(-c4cccc5[nH]ncc45)nc(N4CCOCC4)c3s2)CC1							inactive	inactive			
C[C@@H]1CN(c2nc(N3CCOCC3)c3sc(-c4ccsc4)cc3n2)C[C@H](C)O1	> 2000	> 10000									
CCC(O)c1cc2nc(N3C[C@@H](C)O[C@@H](C)C3)nc(N3CCOCC3)c2s1 (stereo not given in full)	> 2000	239	> 25000	9120	1600	2970					
CN1CCN(c2nc(N3CCOCC3)c3sc(CO)cc3n2)CC1	> 2000	1030									
C[C@@H]1CN(c2nc(N3CCOCC3)c3sc(-c4ccc(N)nc4)cc3n2)C[C@H](C)O1	70	165	> 25000	2900	1130	7000					
C[C@@H]1CN(c2nc(N3CCOCC3)c3sc(-c4ccc[nH]4)cc3n2)C[C@H](C)O1	172	4180	> 25000	18900	2390	3050					
C[C@@H]1CN(c2nc(N3CCOCC3)c3sc(-c4cn[nH]c4)cc3n2)C[C@H](C)O1	427	995	> 25000	10100	4050	> 25000					
CS(=O)(=O)N1CCN(Cc2cc3nc(N4CCOCC4)nc(N4CCOCC4)c3s2)CC1	> 2000	4820									
C[C@@H]1CN(c2nc(N3CCOCC3)c3sc(C(N)=O)cc3n2)C[C@H](C)O1	865	191	> 25000	7110	3270	4320					
c1cc2c(N3CCOCC3)nc(N3CCOCC3)nc2[nH]1	> 2000	6180									
CC(=O)c1cc2nc(N3CCOCC3)nc(N3CCOCC3)c2s1	> 2000	675									
C[C@@H]1CN(c2nc(N3CCOCC3)c3sc(-c4cnc(N)nc4)cc3n2)C[C@H](C)O1	424	24	> 25000	10000	4530	3670			35	317	171
c1nc2c(N3CCOCC3)nc(N3CCOCC3)nc2[nH]1	> 2000	> 10000									
CS(=O)(=O)N1CCN(c2nc(N3CCOCC3)c3sc(CO)cc3n2)CC1	> 2000	279	> 25000	23300	6160	15000					
CC(O)c1cc2nc(N3C[C@@H](C)O[C@@H](C)C3)nc(N3CCOCC3)c2s1 (stereo not given in full)	632	122	3290	1220	2590	1380					
C[C@@H]1CN(c2nc(N3CCOCC3)c3sc(-c4ccccc4O)cc3n2)C[C@H](C)O1	225	> 10000	9880	1800	2380	2490					
O=C(O)c1cc2nc(N3CCOCC3)nc(N3CCOCC3)c2s1	> 2000	237	2440	> 25000	23600	> 25000					
C[C@@H]1CN(c2nc(N3CCOCC3)c3sc(-c4ccccn4)cc3n2)C[C@H](C)O1	270	694	4450	990	4430	2750					
